Laboratory results from patent publication US20230085307A1, “PYRIDAZINONE COMPOUND AND HERBICIDE” (NISSAN CHEMICAL CORPORATION, priority 2019, published 2023).

What was measured:
redroot pigweed = test: Test Example 4: herbicidal effect by soil treatment (Table 19, symbol N); format: in vivo, redroot pigweed (Amaranthus retroflexus); conditions: AAH 320 g/ha
In short: (§1)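 Three weeks of greenhouse growth at 25° C. to 30° C. followed a uniform surface spray of water-diluted emulsion at a predetermined herbicide amount. Seeds had been sown beforehand under about 1.5 cm of sterilized diluvial soil. Grading followed criteria set out in an earlier test.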

Japanese bulrush = test: Test Example 1: herbicidal activity, application before weed generation under submerged conditions (Table 16, symbol B); format: in vivo, Japanese bulrush (Schoenoplectus juncoides); conditions: 320 g/ha applied herbicide
In short: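 Alluvial soil was flooded to 4 cm depth, weed seeds were sown mixed and 2.5-leaf rice seedlings were transplanted. On sowing day, the compound's emulsion, diluted in water to a set dose, was applied to the water surface. Plants grew at 25–30 °C and were scored 0–5 after three weeks.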

lambsquarters [1] = test: Test Example 4: herbicidal effect by soil treatment (Table 19, symbol O); format: in vivo, lambsquarters (Chenopodium album); conditions: AAH 320 g/ha
In short: as §1

barnyard grass [2] = test: Test Example 3: herbicidal effect by foliage application, Wagner pot (Table 18, symbol H); format: in vivo, barnyard grass (Echinochloa crus-galli); conditions: 320 g/ha
In short: (§2)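 Plants were sown in alluvial soil held under 0.1–0.5 cm standing water and grown 14 days in a greenhouse at 25–30 °C. An emulsifiable formulation, water-diluted to the set dose, was then sprayed onto the foliage, and effects were scored three weeks later using previously defined criteria.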

Italian ryegrass = test: Test Example 5: herbicidal effect by foliage application, plastic box (Table 20, symbol K); format: in vivo, Italian ryegrass (Lolium multiflorum); conditions: foliage application, 320 g/ha, 3 weeks after application
In short: (§3)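 Plants sown in sterilized diluvial soil and grown 14 days in a greenhouse at 25° C to 30° C, then sprayed on the foliage with the compound's emulsion diluted in water to a predetermined herbicide amount. Injury to weeds and crops scored three weeks after application on a visual rating scale.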

lambsquarters [3] = test: Test Example 5: herbicidal effect by foliage application, plastic box (Table 20, symbol O); format: in vivo, lambsquarters (Chenopodium album); conditions: foliage application, 320 g/ha, 3 weeks after application
In short: as §3

windgrass = test: Test Example 5: herbicidal effect by foliage application, plastic box (Table 20, symbol L); format: in vivo, windgrass (Apera spica-venti); conditions: foliage application, 320 g/ha, 3 weeks after application
In short: as §3

late watergrass = test: Test Example 2: herbicidal activity, application during weed generation under submerged conditions (Table 17, symbol A); format: in vivo, late watergrass (Echinochloa oryzicola); conditions: AAH 320 g/ha; application during weed generation, submerged conditions
In short: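 Steps: fill Wagner pots with alluvial soil; add water to give 4 cm depth; sow the species mixed; grow under glass at 25–30° C.; at 1–2 leaves apply water-diluted emulsion formulation to the water surface at a fixed herbicide amount; score after 3 weeks.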

barnyard grass [4] = test: Test Example 4: herbicidal effect by soil treatment (Table 19, symbol H); format: in vivo, barnyard grass (Echinochloa crus-galli); conditions: AAH 320 g/ha
In short: as §1

green foxtail = test: Test Example 4: herbicidal effect by soil treatment (Table 19, symbol G); format: in vivo, green foxtail (Setaria viridis); conditions: AAH 320 g/ha
In short: as §1

velvetleaf = test: Test Example 4: herbicidal effect by soil treatment (Table 19, symbol M); format: in vivo, velvetleaf (Abutilon theophrasti); conditions: AAH 320 g/ha
In short: as §1

blackgrass [5] = test: Test Example 4: herbicidal effect by soil treatment (Table 19, symbol J); format: in vivo, blackgrass (Alopecurus myosuroides); conditions: AAH 320 g/ha
In short: as §1

chickweed = test: Test Example 4: herbicidal effect by soil treatment (Table 19, symbol P); format: in vivo, common chickweed (Stellaria media); conditions: AAH 320 g/ha
In short: as §1

blackgrass [6] = test: Test Example 5: herbicidal effect by foliage application, plastic box (Table 20, symbol J); format: in vivo, blackgrass (Alopecurus myosuroides); conditions: foliage application, 320 g/ha, 3 weeks after application
In short: as §3

wild oat = test: Test Example 5: herbicidal effect by foliage application, plastic box (Table 20, symbol I); format: in vivo, wild oat (Avena fatua); conditions: foliage application, 320 g/ha, 3 weeks after application
In short: as §3

Chinese sprangletop = test: Test Example 3: herbicidal effect by foliage application, Wagner pot (Table 18, symbol D); format: in vivo, chinese sprangletop (Leptochloa chinensis); conditions: 320 g/ha
In short: as §2

southern crabgrass = test: Test Example 4: herbicidal effect by soil treatment (Table 19, symbol F); format: in vivo, southern crabgrass (Digitaria ciliaris); conditions: AAH 320 g/ha
In short: as §1

Structure (SMILES) | N: redroot pigweed, herbicidal effect rating (redroot pigweed) | Herbicidal effect on B: Japanese bulrush (grade 0-5) (Japanese bulrush) | O: lambsquarters, herbicidal effect rating (lambsquarters [1]) | herbicidal effect on H (barnyard grass), rating 0-5 (barnyard grass [2]) | effect on Italian ryegrass (K) (Italian ryegrass) | effect on lambsquarters (O) (lambsquarters [3]) | effect on windgrass (L) (windgrass) | herbicidal effect rating, A: late watergrass (late watergrass) | H: barnyard grass, herbicidal effect rating (barnyard grass [4]) | G: green foxtail, herbicidal effect rating (green foxtail) | M: velvetleaf, herbicidal effect rating (velvetleaf) | J: blackgrass, herbicidal effect rating (blackgrass [5]) | P: chickweed, herbicidal effect rating (chickweed) | effect on blackgrass (J) (blackgrass [6]) | effect on wild oat (I) (wild oat) | herbicidal effect on D (Chinese sprangletop), rating 0-5 (Chinese sprangletop) | F: southern crabgrass, herbicidal effect rating (southern crabgrass)
Cc1nn(C)c(=O)c(-c2c(-c3ccc(OCC(F)F)cc3)sc3ccccc23)c1O [1-203] | 5 (Herbicidal rate of 90% or more (almost completely withered)) | 5 (Herbicidal rate of 90% or more (almost completely withered)) | 5 (Herbicidal rate of 90% or more (almost completely withered)) | 5 (Herbicidal rate of 90% or more (almost completely withered)) | 5 (Herbicidal rate of 90% or more (almost completely withered)) | 5 (Herbicidal rate of 90% or more (almost completely withered)) | 4 (Herbicidal rate of 70% or more and less than 90%) | 4 (Herbicidal rate of 70% or more and less than 90%) | 5 (Herbicidal rate of 90% or more (almost completely withered)) | 5 (Herbicidal rate of 90% or more (almost completely withered)) | 5 (Herbicidal rate of 90% or more (almost completely withered)) | 3 (Herbicidal rate of 40% or more and less than 70%) | 5 (Herbicidal rate of 90% or more (almost completely withered)) | 2 (Herbicidal rate of 20% or more and less than 40%) | 0 (Herbicidal rate of 5% or less (almost no effect)) | 4 (Herbicidal rate of 70% or more and less than 90%) | 4 (Herbicidal rate of 70% or more and less than 90%)
COCCOCOc1c(C)nn(C)c(=O)c1-c1c(-c2ccc(OCCSC)cc2)sc2ccccc12 [1-221] | 5 (Herbicidal rate of 90% or more (almost completely withered)) | 3 (Herbicidal rate of 40% or more and less than 70%) | 4 (Herbicidal rate of 70% or more and less than 90%) | 5 (Herbicidal rate of 90% or more (almost completely withered)) | 5 (Herbicidal rate of 90% or more (almost completely withered)) | 5 (Herbicidal rate of 90% or more (almost completely withered)) | 5 (Herbicidal rate of 90% or more (almost completely withered)) | 5 (Herbicidal rate of 90% or more (almost completely withered)) | 3 (Herbicidal rate of 40% or more and less than 70%) | 5 (Herbicidal rate of 90% or more (almost completely withered)) | 2 (Herbicidal rate of 20% or more and less than 40%) | 0 (Herbicidal rate of 5% or less (almost no effect)) | 4 (Herbicidal rate of 70% or more and less than 90%) | 5 (Herbicidal rate of 90% or more (almost completely withered)) | 5 (Herbicidal rate of 90% or more (almost completely withered)) | 5 (Herbicidal rate of 90% or more (almost completely withered)) | 2 (Herbicidal rate of 20% or more and less than 40%)
COCCOCOc1c(C)nn(C)c(=O)c1-c1c(-c2ccc(OCCC3OCCO3)cc2)sc2ccccc12 [1-224] | 4 (Herbicidal rate of 70% or more and less than 90%) | 5 (Herbicidal rate of 90% or more (almost completely withered)) | 3 (Herbicidal rate of 40% or more and less than 70%) | 5 (Herbicidal rate of 90% or more (almost completely withered)) | 0 (Herbicidal rate of 5% or less (almost no effect)) | 4 (Herbicidal rate of 70% or more and less than 90%) | 0 (Herbicidal rate of 5% or less (almost no effect)) | 3 (Herbicidal rate of 40% or more and less than 70%) | 1 (Herbicidal rate of 5% or more and less than 20%) | 3 (Herbicidal rate of 40% or more and less than 70%) | 5 (Herbicidal rate of 90% or more (almost completely withered)) | 0 (Herbicidal rate of 5% or less (almost no effect)) | 0 (Herbicidal rate of 5% or less (almost no effect)) | 0 (Herbicidal rate of 5% or less (almost no effect)) | 0 (Herbicidal rate of 5% or less (almost no effect)) | 3 (Herbicidal rate of 40% or more and less than 70%) | 2 (Herbicidal rate of 20% or more and less than 40%)
C#CCSCc1ccc(-c2sc3ccccc3c2-c2c(O)c(C)nn(C)c2=O)cc1 [1-247] | 3 (Herbicidal rate of 40% or more and less than 70%) | 2 (Herbicidal rate of 20% or more and less than 40%) | 3 (Herbicidal rate of 40% or more and less than 70%) | 5 (Herbicidal rate of 90% or more (almost completely withered)) | 4 (Herbicidal rate of 70% or more and less than 90%) | 5 (Herbicidal rate of 90% or more (almost completely withered)) | 0 (Herbicidal rate of 5% or less (almost no effect)) | 3 (Herbicidal rate of 40% or more and less than 70%) | 0 (Herbicidal rate of 5% or less (almost no effect)) | 0 (Herbicidal rate of 5% or less (almost no effect)) | 0 (Herbicidal rate of 5% or less (almost no effect)) | 0 (Herbicidal rate of 5% or less (almost no effect)) | 4 (Herbicidal rate of 70% or more and less than 90%) | 0 (Herbicidal rate of 5% or less (almost no effect)) | 1 (Herbicidal rate of 5% or more and less than 20%) | 1 (Herbicidal rate of 5% or more and less than 20%) | 0 (Herbicidal rate of 5% or less (almost no effect))
Cc1nn(C)c(=O)c(-c2c(-c3ccc(F)cc3)sc3ccc(F)cc23)c1O [2-001] | 5 (Herbicidal rate of 90% or more (almost completely withered)) | 3 (Herbicidal rate of 40% or more and less than 70%) | 5 (Herbicidal rate of 90% or more (almost completely withered)) | 5 (Herbicidal rate of 90% or more (almost completely withered)) | 5 (Herbicidal rate of 90% or more (almost completely withered)) | 5 (Herbicidal rate of 90% or more (almost completely withered)) | 4 (Herbicidal rate of 70% or more and less than 90%) | 1 (Herbicidal rate of 5% or more and less than 20%) | 3 (Herbicidal rate of 40% or more and less than 70%) | 4 (Herbicidal rate of 70% or more and less than 90%) | 5 (Herbicidal rate of 90% or more (almost completely withered)) | 2 (Herbicidal rate of 20% or more and less than 40%) | 4 (Herbicidal rate of 70% or more and less than 90%) | 4 (Herbicidal rate of 70% or more and less than 90%) | 5 (Herbicidal rate of 90% or more (almost completely withered)) | 5 (Herbicidal rate of 90% or more (almost completely withered)) | 5 (Herbicidal rate of 90% or more (almost completely withered))
